Our source for the logD, bioavailability and IC50 values is ChEMBL document CHEMBL2177079, “Free-Wilson and structural approaches to co-optimizing human and rodent isoform potency for 11β-hydroxysteroid dehydrogenase type 1 (11β-HSD1) inhibitors” (J Med Chem, 2012).

The nature of data set [1]: Lipophilicity, log D at pH 7.4. Format: physicochemical. The conditions noted are these: buffer.
Data set [2] can be described thus: Oral bioavailability in Han Wistar rat at 7.4 to 14.7 umol/kg. In kind it is ADME, organism-based. The conditions noted are these: Han Wistar, in vivo.
The target in data set [3] is 11-beta-hydroxysteroid dehydrogenase 1 (Mus musculus, UniProt P50172). In words: Inhibition of mouse 11beta-HSD1 by HTRF assay. For orientation: Time-resolved FRET reads energy transfer from a long-lived donor to a nearby acceptor.
Sequence of 11-beta-hydroxysteroid dehydrogenase 1 (Mus musculus, UniProt P50172) (P50172 whole entry): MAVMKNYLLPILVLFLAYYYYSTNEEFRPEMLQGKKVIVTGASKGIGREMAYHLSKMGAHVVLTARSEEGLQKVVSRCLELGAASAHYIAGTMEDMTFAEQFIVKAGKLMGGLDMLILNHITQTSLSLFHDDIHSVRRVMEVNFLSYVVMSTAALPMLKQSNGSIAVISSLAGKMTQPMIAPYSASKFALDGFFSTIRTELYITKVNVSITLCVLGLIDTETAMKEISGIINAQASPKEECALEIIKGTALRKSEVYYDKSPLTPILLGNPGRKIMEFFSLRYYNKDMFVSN
In data set [4] the target is 11-beta-hydroxysteroid dehydrogenase 1 (Homo sapiens, UniProt P28845). The data set is described as follows: Inhibition of human 11beta-HSD1 by HTRF assay.
Sequence of 11-beta-hydroxysteroid dehydrogenase 1 (Homo sapiens, UniProt P28845) (P28845 whole entry): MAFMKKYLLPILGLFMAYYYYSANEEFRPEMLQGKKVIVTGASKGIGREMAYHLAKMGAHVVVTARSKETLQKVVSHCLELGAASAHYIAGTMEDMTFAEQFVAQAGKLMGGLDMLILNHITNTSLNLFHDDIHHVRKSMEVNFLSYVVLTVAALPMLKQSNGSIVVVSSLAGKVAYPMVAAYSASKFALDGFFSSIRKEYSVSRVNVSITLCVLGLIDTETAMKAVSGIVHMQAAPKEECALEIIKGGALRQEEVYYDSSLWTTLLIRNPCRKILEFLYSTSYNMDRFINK

Turning to `O=C(N[C@H]1C2CC3CC1C[C@](O)(C3)C2)c1cnc(NC2CCOCC2)nc1OC1CCC1`, the log distribution coefficient (logD) in data set [1] is 3.2. In data set [2], this molecule came in with a bioavailability of 83%. In addition, the IC50 in data set [3] amounted to 0.019 µM.
In data set [1], `O=C(N[C@H]1C2CC3CC1C[C@](O)(C3)C2)c1cnc(NC[C@H]2CCCO2)nc1C1CCCC1` displayed a pH-dependent lipophilicity (logD) of 2.8. The same molecule came in with an IC50 in data set [3] of 0.042 µM.
`CC(C)(O)CNc1ncc(C(=O)N[C@H]2C3CC4CC2C[C@](O)(C4)C3)c(C2CCCC2)n1` registered a logD in data set [1] of 2.3. The same molecule had a bioavailability in data set [2] of 33%. This molecule also registered a 50% inhibitory concentration (IC50) in data set [3] of 0.048 µM.
As to `C[C@@H](O)CNc1ncc(C(=O)N[C@H]2C3CC4CC2C[C@](O)(C4)C3)c(C2CCCC2)n1`, the logD in data set [1] is 2. Moreover, in data set [2], the bioavailability came out at 68%. The molecule further returned a concentration for half-maximal inhibition (IC50) in data set [3] of 0.067 µM.
In the same order, the values of `O=C(N[C@H]1C2CC3CC1C[C@](O)(C3)C2)c1cnc(NCCO)nc1OC1CCC1` are 2.5, 51% and 0.031 µM.
The corresponding values for `O=C(N[C@H]1C2CC3CC1C[C@](O)(C3)C2)c1cnc(NC2CCOCC2)nc1C1CC1` are 1.8, 53% and 0.022 µM.
With `CC(=O)N1CC[C@@H](Nc2ncc(C(=O)N[C@H]3C4CC5CC3C[C@](O)(C5)C4)c(C3CCCC3)n2)C1`, in data set [1], the logD turned out to be 1.8. For the same molecule, in data set [2], the bioavailability is 18%. Further, 0.05 µM corresponded to half-maximal inhibition in data set [3] (IC50).
Regarding `O=C(N[C@H]1C2CC3CC1C[C@](O)(C3)C2)c1cnc(NC2CCS(=O)(=O)CC2)nc1OC1CCC1`, in data set [1], the pH-dependent lipophilicity (logD) worked out at 2.1. The molecule also came in with a 50% inhibitory concentration (IC50) in data set [3] of 0.031 µM.
For the molecule `O=C(N[C@H]1C2CC3CC1C[C@](O)(C3)C2)c1cnc(N[C@H]2CCC[C@H]2O)nc1C1CCCC1`, in data set [1], the log distribution coefficient (logD) came to 2.7. The bioavailability in data set [2] worked out at 17%. This molecule registered an IC50 in data set [3] of 0.036 µM.
Consider `C[C@H](O)CNc1ncc(C(=O)N[C@H]2C3CC4CC2C[C@](O)(C4)C3)c(C2CCCC2)n1`, for which the pH-dependent lipophilicity (logD) in data set [1] was found to be 2. This molecule came in with an IC50 in data set [3] of 0.042 µM.
`CC(C)(CO)Nc1ncc(C(=O)N[C@H]2C3CC4CC2C[C@](O)(C4)C3)c(C2CC2)n1` displayed a log distribution coefficient (logD) in data set [1] of 1.8. Besides, in data set [3], the midpoint of inhibition, the IC50, lay at 0.02 µM.
Molecule `O=C(N[C@H]1C2CC3CC1C[C@](O)(C3)C2)c1cnc(NC2COC2)nc1OC1CCC1` displayed a logD in data set [1] of 2.6. Also, the bioavailability in data set [2] was found to be 19%. This molecule gave an IC50 in data set [3] of 0.033 µM.
For `CN(C)C(=O)CNc1ncc(C(=O)N[C@H]2C3CC4CC2C[C@](O)(C4)C3)c(C2CCCC2)n1`, the pH-dependent lipophilicity (logD) in data set [1] amounted to 1.4. This molecule also showed a 50% inhibitory concentration (IC50) in data set [3] of 0.163 µM.
`O=C(N[C@H]1C2CC3CC1C[C@](O)(C3)C2)c1cnc(N[C@@H]2CCOC2)nc1C1CCCC1`: the half-maximal inhibitory concentration (IC50) came to 0.021 µM in data set [4] and 0.025 µM in data set [3]. Moreover, the pH-dependent lipophilicity (logD) in data set [1] was found to be 2.4. The molecule further showed a bioavailability in data set [2] of 63%.
As to `O=C(N[C@H]1C2CC3CC1C[C@](O)(C3)C2)c1cnc(NC2CCS(=O)(=O)CC2)nc1C1CCCC1`, the log distribution coefficient (logD) in data set [1] was 1.6. The midpoint of inhibition in data set [3], the IC50, lay at 0.064 µM.
As for `O=C(N[C@H]1C2CC3CC1C[C@](O)(C3)C2)c1cnc(N[C@@H]2CCOC2)nc1OC1CCC1`, in data set [1], the pH-dependent lipophilicity (logD) was 2.9. In data set [2], the bioavailability was 99%. For the same molecule, half-maximal inhibition in data set [3] (IC50) required 0.016 µM.
As to `O=C(N[C@H]1C2CC3CC1C[C@](O)(C3)C2)c1cnc(NCCO)nc1C1CCCC1`, in data set [1], the pH-dependent lipophilicity (logD) came out at 1.8. The IC50 in data set [3] is 0.179 µM.
With `O=C(N[C@H]1C2CC3CC1C[C@](O)(C3)C2)c1cnc(N[C@H]2CCOC2)nc1C1CCC1`, in data set [1], the pH-dependent lipophilicity (logD) amounted to 1.8. The same molecule had a bioavailability in data set [2] of 82%. Also, the IC50 in data set [3] turned out to be 0.042 µM.
Take `CC(C)Oc1nc(N[C@H]2CCOC2)ncc1C(=O)N[C@H]1C2CC3CC1C[C@](O)(C3)C2`: the logD in data set [1] was determined as 2.5. The same molecule had a bioavailability in data set [2] of 83%.
For the molecule `CC(C)(O)CNc1ncc(C(=O)N[C@H]2C3CC4CC2C[C@](O)(C4)C3)c(C2CCC2)n1`, the logD in data set [1] worked out at 1.8. The bioavailability in data set [2] stood at 86%.
With `O=C1CC[C@@H](Nc2ncc(C(=O)N[C@H]3C4CC5CC3C[C@](O)(C5)C4)c(C3CCCC3)n2)CN1`, in data set [1], the logD came to 1.6. Further, the 50% inhibitory concentration (IC50) in data set [3] came to 0.133 µM.
`O=C(N[C@H]1C2CC3CC1C[C@](O)(C3)C2)c1cnc(N[C@@H]2CCOC2)nc1C1CC1` showed a pH-dependent lipophilicity (logD) in data set [1] of 1.6.
Regarding `CC(C)(CO)Nc1ncc(C(=O)N[C@H]2C3CC4CC2C[C@](O)(C4)C3)c(C2CCCC2)n1`, the pH-dependent lipophilicity (logD) in data set [1] came to 2.5. Moreover, the IC50 in data set [3] was found to be 0.032 µM.
Regarding `O=C(N[C@H]1C2CC3CC1C[C@](O)(C3)C2)c1cnc(N[C@H]2CCOC2)nc1C1CC1`, the logD in data set [1] turned out to be 1.7. For the same molecule, the bioavailability in data set [2] was 73%.
On to `O=C(N[C@H]1C2CC3CC1C[C@](O)(C3)C2)c1cnc(NCCO)nc1C1CCC1`, for which the logD in data set [1] was 1.3.
Consider `CC(=O)N1CCC(Nc2ncc(C(=O)N[C@H]3C4CC5CC3C[C@](O)(C5)C4)c(C3CCCC3)n2)CC1`, for which the pH-dependent lipophilicity (logD) in data set [1] came out at 1.9. Also, in data set [2], the bioavailability stood at 46%. The molecule also displayed an IC50 in data set [3] of 0.084 µM.
`O=C(N[C@H]1C2CC3CC1C[C@](O)(C3)C2)c1cnc(NC2CCOCC2)nc1C1CCCC1` showed a logD in data set [1] of 2.6. In data set [3], this molecule gave an IC50 of 0.038 µM.
`O=C1C[C@H](CNc2ncc(C(=O)N[C@H]3C4CC5CC3C[C@](O)(C5)C4)c(C3CCCC3)n2)CN1` showed a logD in data set [1] of 1.4. The same molecule had a bioavailability in data set [2] of 9%. In data set [3], this molecule returned an IC50 of 0.085 µM.
On to `CC(C)Oc1nc(NC2COC2)ncc1C(=O)N[C@H]1C2CC3CC1C[C@](O)(C3)C2`, for which the logD in data set [1] came to 2.2. In addition, the bioavailability in data set [2] was 57%. The 50% inhibitory concentration (IC50) in data set [3] is 0.053 µM.
Molecule `O=C(N[C@H]1C2CC3CC1C[C@](O)(C3)C2)c1cnc(N[C@@H]2CCOC2)nc1C1CCC1` came in with a log distribution coefficient (logD) in data set [1] of 2. This molecule returned a bioavailability in data set [2] of 99%. The same molecule registered an IC50 in data set [3] of 0.037 µM.
For `COCCNc1ncc(C(=O)N[C@H]2C3CC4CC2C[C@](O)(C4)C3)c(C2CCCC2)n1`, the logD in data set [1] worked out at 2.4. Moreover, the 50% inhibitory concentration (IC50) in data set [3] amounted to 0.073 µM.
As to `O=C(N[C@H]1C2CC3CC1C[C@](O)(C3)C2)c1cnc(N[C@H]2CCNC2=O)nc1C1CCCC1`, the logD in data set [1] came out at 0.9. In addition, the half-inhibitory concentration (IC50) in data set [3] worked out at 0.055 µM.
For the molecule `CC(C)Oc1nc(N[C@@H]2CCOC2)ncc1C(=O)N[C@H]1C2CC3CC1C[C@](O)(C3)C2`, the logD in data set [1] worked out at 2.7. The same molecule gave a bioavailability in data set [2] of 62%.
Molecule `O=C(N[C@H]1C2CC3CC1C[C@](O)(C3)C2)c1cnc(NC2COC2)nc1C1CC1` had a logD in data set [1] of 1.1. This molecule also gave an IC50 in data set [3] of 0.038 µM.
`CC(C)(O)CNc1ncc(C(=O)N[C@H]2C3CC4CC2C[C@](O)(C4)C3)c(C2CC2)n1` had a logD in data set [1] of 1.5. Further, the IC50 in data set [3] was determined as 0.031 µM.
`O=C(N[C@H]1C2CC3CC1C[C@](O)(C3)C2)c1cnc(NC2COC2)nc1C1CCCC1` had a logD in data set [1] of 2.1. The same molecule displayed an IC50 in data set [3] of 0.066 µM.
The molecule `O=C(N[C@H]1C2CC3CC1C[C@](O)(C3)C2)c1cnc(N[C@H]2CCOC2)nc1OC1CCC1` yielded a pH-dependent lipophilicity (logD) in data set [1] of 2.8. Besides, in data set [2], the bioavailability was 99%. In data set [3], this molecule showed a 50% inhibitory concentration (IC50) of 0.022 µM.
In data set [1], `O=C(N[C@H]1C2CC3CC1C[C@](O)(C3)C2)c1cnc(NC[C@@H]2CCCO2)nc1C1CCCC1` (single isomer, unassigned) registered a pH-dependent lipophilicity (logD) of 2.7. The half-inhibitory concentration (IC50) in data set [3] is 0.025 µM.
For `O=C(N[C@H]1C2CC3CC1C[C@](O)(C3)C2)c1cnc(NC2CCS(=O)(=O)CC2)nc1C1CCC1`, in data set [1], the pH-dependent lipophilicity (logD) is 1.1.

As a reminder, the logD is the decadic logarithm of the distribution of all forms, ionised or not, between an organic phase and buffer at a given pH. Read a low logD as a more hydrophilic compound. As a reminder, the bioavailability is the share of a dose that reaches the circulation, judged against a reference dose that is usually intravenous. The low end stands for little systemic uptake, the high end for much systemic uptake. By IC50 is commonly meant the concentration needed to halve the response being measured. Read a high IC50 as weaker potency.
